± gives the expanded uncertainty stated by the source.
Details: for surface tension liquid-gas: Wilhelmg Plate Tensimeter; for mass density: Liquid, Vibrating tube method

CCOS(=O)(=O)[O-].CCn1cc[n+](C)c1 [1-ethyl-3-methylimidazolium ethyl sulfate]
Details	surface tension liquid-gas [mN/m]
292.91 K	47.16 ± 1.7
298.26 K	46.9 ± 1.7
303 K	46.59 ± 1.7
308.61 K	46.35 ± 1.7
313.41 K	46.12 ± 1.7
322.71 K	45.5 ± 1.7
332.09 K	45.08 ± 1.6

Details	mass density [kg/m3]
293.15 K, 100 kPa	1241.3 ± 9.9
293.15 K, 101.33 kPa	1241.37 ± 9.9
293.15 K, 250 kPa	1241.4 ± 9.9
293.15 K, 500 kPa	1241.4 ± 9.9
293.15 K, 1000 kPa	1241.7 ± 9.9
293.15 K, 1990 kPa	1242.1 ± 9.9
293.15 K, 4990 kPa	1243.3 ± 10
293.15 K, 10010 kPa	1245.3 ± 10
293.15 K, 14990 kPa	1247.2 ± 10
293.15 K, 20000 kPa	1249.2 ± 10
293.15 K, 24990 kPa	1251.1 ± 10
293.15 K, 30010 kPa	1253 ± 10
293.15 K, 35000 kPa	1254.8 ± 10
293.15 K, 40000 kPa	1256.6 ± 10
293.15 K, 45000 kPa	1258.4 ± 10
293.15 K, 50000 kPa	1260.2 ± 10
293.15 K, 55000 kPa	1262 ± 10
293.15 K, 60000 kPa	1263.7 ± 10
294.15 K, 101.33 kPa	1240.67 ± 9.9
295.15 K, 101.33 kPa	1239.97 ± 9.9
296.15 K, 101.33 kPa	1239.28 ± 9.9
297.15 K, 101.33 kPa	1238.58 ± 9.9
298.15 K, 101.33 kPa	1237.88 ± 9.9
299.15 K, 101.33 kPa	1237.19 ± 9.9
300.15 K, 101.33 kPa	1236.5 ± 9.9
301.15 K, 101.33 kPa	1235.81 ± 9.9
302.15 K, 101.33 kPa	1235.12 ± 9.9
303.15 K, 100 kPa	1234.3 ± 9.9
303.15 K, 101.33 kPa	1234.43 ± 9.9
303.15 K, 250 kPa	1234.4 ± 9.9
303.15 K, 500 kPa	1234.5 ± 9.9
303.15 K, 1000 kPa	1234.7 ± 9.9
303.15 K, 2010 kPa	1235.1 ± 9.9
303.15 K, 4990 kPa	1236.3 ± 9.9
303.15 K, 10010 kPa	1238.4 ± 9.9
303.15 K, 14990 kPa	1240.4 ± 9.9
303.15 K, 20000 kPa	1242.4 ± 10
303.15 K, 24990 kPa	1244.3 ± 10
303.15 K, 30010 kPa	1246.3 ± 10
303.15 K, 35010 kPa	1248.1 ± 10
303.15 K, 40000 kPa	1250 ± 10
303.15 K, 45000 kPa	1251.8 ± 10
303.15 K, 50000 kPa	1253.6 ± 10
303.15 K, 55000 kPa	1255.4 ± 10
303.15 K, 60000 kPa	1257.1 ± 10
304.15 K, 101.33 kPa	1233.74 ± 9.9
305.15 K, 101.33 kPa	1233.05 ± 9.9
306.15 K, 101.33 kPa	1232.37 ± 9.9
307.15 K, 101.33 kPa	1231.69 ± 9.9
308.15 K, 101.33 kPa	1231 ± 9.9
309.15 K, 101.33 kPa	1230.32 ± 9.8
310.15 K, 101.33 kPa	1229.64 ± 9.8
311.15 K, 101.33 kPa	1228.96 ± 9.8
312.15 K, 101.33 kPa	1228.28 ± 9.8
313.15 K, 100 kPa	1227.5 ± 9.8
313.15 K, 101.33 kPa	1227.61 ± 9.8
313.15 K, 250 kPa	1227.5 ± 9.8
313.15 K, 500 kPa	1227.6 ± 9.8
313.15 K, 2000 kPa	1228.3 ± 9.8
313.15 K, 4990 kPa	1229.5 ± 9.8
313.15 K, 10010 kPa	1231.7 ± 9.9
313.15 K, 14990 kPa	1233.7 ± 9.9
313.15 K, 20000 kPa	1235.7 ± 9.9
313.15 K, 25000 kPa	1237.6 ± 9.9
313.15 K, 30010 kPa	1239.6 ± 9.9
313.15 K, 35000 kPa	1241.5 ± 10
313.15 K, 40000 kPa	1243.4 ± 10
313.15 K, 44990 kPa	1245.3 ± 10
313.15 K, 50000 kPa	1247.1 ± 10
313.15 K, 54990 kPa	1248.9 ± 10
313.15 K, 60000 kPa	1250.7 ± 10
314.15 K, 101.33 kPa	1226.93 ± 9.8
315.15 K, 101.33 kPa	1226.25 ± 9.8
316.15 K, 101.33 kPa	1225.58 ± 9.8
317.15 K, 101.33 kPa	1224.9 ± 9.8
318.15 K, 101.33 kPa	1224.23 ± 9.8
319.15 K, 101.33 kPa	1223.56 ± 9.8
320.15 K, 101.33 kPa	1222.89 ± 9.8
321.15 K, 101.33 kPa	1222.21 ± 9.8
322.15 K, 101.33 kPa	1221.54 ± 9.8
323.15 K, 100 kPa	1220.7 ± 9.8
323.15 K, 101.33 kPa	1220.88 ± 9.8
323.15 K, 250 kPa	1220.8 ± 9.8
323.15 K, 500 kPa	1220.9 ± 9.8
323.15 K, 1010 kPa	1221.1 ± 9.8
323.15 K, 2010 kPa	1221.6 ± 9.8
323.15 K, 4990 kPa	1222.9 ± 9.8
323.15 K, 10010 kPa	1225 ± 9.8
323.15 K, 14990 kPa	1227.1 ± 9.8
323.15 K, 20010 kPa	1229.1 ± 9.8
323.15 K, 25000 kPa	1231.1 ± 9.9
323.15 K, 30010 kPa	1233.1 ± 9.9
323.15 K, 35000 kPa	1235.1 ± 9.9
323.15 K, 40000 kPa	1237 ± 9.9
323.15 K, 45000 kPa	1238.9 ± 9.9
323.15 K, 50000 kPa	1240.8 ± 10
323.15 K, 55000 kPa	1242.6 ± 10
323.15 K, 60000 kPa	1244.5 ± 10
324.15 K, 101.33 kPa	1220.21 ± 9.8
325.15 K, 101.33 kPa	1219.54 ± 9.8
326.15 K, 101.33 kPa	1218.87 ± 9.8
327.15 K, 101.33 kPa	1218.21 ± 9.8
328.15 K, 101.33 kPa	1217.54 ± 9.8
329.15 K, 101.33 kPa	1216.88 ± 9.7
330.15 K, 101.33 kPa	1216.21 ± 9.7
331.15 K, 101.33 kPa	1215.55 ± 9.7
332.15 K, 101.33 kPa	1214.89 ± 9.7
333.15 K, 100 kPa	1214.1 ± 9.7
333.15 K, 101.33 kPa	1214.23 ± 9.7
333.15 K, 250 kPa	1214.1 ± 9.7
333.15 K, 500 kPa	1214.2 ± 9.7
333.15 K, 1000 kPa	1214.4 ± 9.7
333.15 K, 2010 kPa	1214.9 ± 9.7
333.15 K, 5000 kPa	1216.2 ± 9.7
333.15 K, 10010 kPa	1218.4 ± 9.8
333.15 K, 14990 kPa	1220.5 ± 9.8
333.15 K, 20000 kPa	1222.7 ± 9.8
333.15 K, 24990 kPa	1224.7 ± 9.8
333.15 K, 30000 kPa	1226.7 ± 9.8
333.15 K, 34990 kPa	1228.7 ± 9.9
333.15 K, 40000 kPa	1230.7 ± 9.9
333.15 K, 45020 kPa	1232.6 ± 9.9
333.15 K, 50000 kPa	1234.5 ± 9.9
333.15 K, 54990 kPa	1236.4 ± 9.9
333.15 K, 60000 kPa	1238.3 ± 9.9
334.15 K, 101.33 kPa	1213.56 ± 9.7
335.15 K, 101.33 kPa	1212.9 ± 9.7
336.15 K, 101.33 kPa	1212.24 ± 9.7
337.15 K, 101.33 kPa	1211.58 ± 9.7
338.15 K, 101.33 kPa	1210.92 ± 9.7
339.15 K, 101.33 kPa	1210.26 ± 9.7
340.15 K, 101.33 kPa	1209.6 ± 9.7
341.15 K, 101.33 kPa	1208.95 ± 9.7
